Reference: publication PMC12721191, “Oxidative hypoxia drives TGF-β1–induced fibrosis under normoxia” (Redox Biology, 2025)

Key:
Recombinant PHD2 = target: T1, Recombinant PHD2 (Homo sapiens, UniProt Q9GZT9); experiment: In vitro PHD2 enzymatic assay (HIF peptide hydroxylation, HPLC); type: biochemical
T1 construct: purchased ActiveMotif, Japan 81065
Protocol: To identify whether TGF-β1 directly affects PHD2 enzymatic activity, we performed an in vitro PHD2 assay using synthetic HIF-1α peptide as a substrate (Fig. 2h). […] To further investigate whether Fe^2+ oxidation impairs PHD2 activity, we introduced H2O2 into the reaction to promote Fe^2+ oxidation.
A reaction mixture (30 µL total volume) containing 300 µM HIF peptide, 1 µM recombinant PHD2, 20 mM Tris-HCl (pH 7.5), 1 mM DTT, 300 µM ascorbic acid, 5 mM KCl, 1.5 mM MgCl2, 50 µM Fe(SO4)·6H2O, and 300 µM α-ketoglutarate was incubated at 30 °C for 2 hr. The reaction was terminated by adding an equal volume (30 µL) of DMSO. Product analysis was carried out on Waters 2998 HPLC system equipped with a photodiode array detector and an XBridge™ BEH C18 column (4.6 × 250 mm, 5 µm), detecting at 280 nm. A hydroxylated HIF peptide served as a reference standard.

HIF-1α–EGFP in A549 = experiment: pg-HIF-1α–EGFP fluorescence in transfected A549; type: cell-based, human; details: A549, co-treatment with TGF-β1
Protocol: pg-HIF-1α–EGFP was introduced via jetOPTIMUS®; GFP fluorescence was quantified 48 h post-transfection.
Transient transfection of A549 cells with pg-HIF-1α–EGFP was performed using jetOPTIMUS® according to the manufacturer’s protocol. Following 48 hr of transfection, the medium was replaced, and cells were treated with TGF-β1 at the specified concentration and duration before further analysis. Cell imaging was performed using an EVOS™ M7000 at 10×, 20×, or 40× magnification. GFP fluorescence intensity was measured using ImageJ. The mean fluorescence within the regions of interest (ROIs) was calculated after background subtraction, and values were normalized to the control condition

A549 [1] = experiment: Western blot of HIF-1α, fibrosis and EMT markers in A549; type: cell-based, human; details: for HIF-1α and COL4A6 levels (Western blot): A549, TGF-β1 co-treatment
A549 [2] = experiment: Scratch migration assay; type: cell-based, human; details: CoCl2 or FG-4592 treatment
[3] = test system: BLM-induced pulmonary fibrosis; experiment: BLM-induced pulmonary fibrosis, Ashcroft scoring of lung sections; type: in vivo, ICR mice; details: BLM 30 mg/kg intratracheal; ACF-2 10 mg/kg i.p. every 2 days or NIDB 60 mg/kg/day in drinking water, 2 weeks; BLM-only 6.2
Protocol: Male ICR mice received BLM (30 mg/kg, intratracheal). […] Fixed left lung lobes were paraffin-embedded, sectioned (4 μm), and stained with H&E or MT. A blinded pathologist graded pulmonary fibrosis on the 1-8 Ashcroft scale; representative images illustrate typical lesions. Colon samples were processed by the swiss-roll method, stained with H&E, and scored for inflammation and erosion, which were combined into a composite histological score. All animal studies were approved by the Institutional Animal Care and Use Committee of Jeju National University (Approval ID: 2024-0058) and conducted in compliance with institutional guidelines. Male ICR mice (6 weeks old, average body weight 27 g) were purchased from […] (South Korea) and housed under controlled temperature (22 ± 2 °C) and humidity (0.0 ± 15.0 %) on a 12 hr light-dark cycle with free access to food and water. […] Lung tissue: Left lung lobes were fixed in 4% paraformaldehyde for 24 h, dehydrated, and embedded in paraffin. Sections of 4 μm thickness were prepared, deparaffinized with xylene, and rehydrated in a graded ethanol series. H&E staining was performed using hematoxylin and eosin solutions, respectively. The severity of fibrosis was graded according to the Ashcroft scale (1-8), as evaluated by a pathologist blindly. Representative H&E images were chosen to illustrate the most characteristic pathology. […]

colon = experiment: Colonic histopathology in the BLM mouse study; type: in vivo, ICR mice; details: BLM mice; ACF-2 10 mg/kg i.p. every 2 days or NIDB 60 mg/kg/day
From the text: Fixed left lung lobes were paraffin-embedded, sectioned (4 μm), and stained with H&E or MT. A blinded pathologist graded pulmonary fibrosis on the 1-8 Ashcroft scale; representative images illustrate typical lesions. Colon samples were processed by the swiss-roll method, stained with H&E, and scored for inflammation and erosion, which were combined into a composite histological score. All animal studies were approved by the Institutional Animal Care and Use Committee of Jeju National University (Approval ID: 2024-0058) and conducted in compliance with institutional guidelines. Male ICR mice (6 weeks old, average body weight 27 g) were purchased from […] (South Korea) and housed under controlled temperature (22 ± 2 °C) and humidity (0.0 ± 15.0 %) on a 12 hr light-dark cycle with free access to food and water. […] Colon tissue: Colons were harvested, flushed with 1xPBS, and prepared using the swiss-roll method before embedding in paraffin. Sections of 4 μm thickness were subjected to H&E staining as described above. Colonic injury was evaluated by two independent parameters: (i) inflammation score (0-3) and (ii) erosion score (0-3). A composite histological score was then calculated as the sum of inflammation and erosion scores for each sample.

[4] = test system: BLM-induced pulmonary fibrosis; experiment: RT-qPCR of lung tissue in BLM-treated mice; type: in vivo, ICR mice; details: BLM 30 mg/kg; ACF-2 10 mg/kg i.p. every 2 days or NIDB 60 mg/kg/day
Protocol: Total RNA (AccuPrep®) was reverse-transcribed and amplified with SYBR Green chemistry on a StepOnePlusTM system; relative expression was calculated by ΔΔCt. Male ICR mice received BLM (30 mg/kg, intratracheal). […] Total RNA was extracted from both cultured cells and mouse lung tissue using the AccuPrep® Universal RNA Extraction Kit. […] RT-qPCR was performed using iTaqTM Universal SYBR® Green Supermix on a StepOnePlusTM Real-Time PCR System. […] All animal studies were approved by the Institutional Animal Care and Use Committee of Jeju National University (Approval ID: 2024-0058) and conducted in compliance with institutional guidelines. Male ICR mice (6 weeks old, average body weight 27 g) were purchased from […] (South Korea) and housed under controlled temperature (22 ± 2 °C) and humidity (0.0 ± 15.0 %) on a 12 hr light-dark cycle with free access to food and water.

T1 sequence (Q9GZT9 whole entry): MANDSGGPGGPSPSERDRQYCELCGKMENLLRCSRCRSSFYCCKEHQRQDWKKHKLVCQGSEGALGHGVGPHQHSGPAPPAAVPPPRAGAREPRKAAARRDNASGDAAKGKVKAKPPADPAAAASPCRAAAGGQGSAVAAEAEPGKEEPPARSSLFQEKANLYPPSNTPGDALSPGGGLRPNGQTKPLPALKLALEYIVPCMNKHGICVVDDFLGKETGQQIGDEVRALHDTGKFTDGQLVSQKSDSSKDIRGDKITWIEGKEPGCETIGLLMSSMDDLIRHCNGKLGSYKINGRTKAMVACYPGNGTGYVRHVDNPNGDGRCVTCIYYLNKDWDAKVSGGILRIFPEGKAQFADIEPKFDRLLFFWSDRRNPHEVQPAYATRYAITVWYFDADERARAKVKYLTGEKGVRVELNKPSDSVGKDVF

O.Oc1cc(O)c2c(c1)O[C@H](c1ccc(O)c(O)c1)[C@@H](O)C2 [Catechin]
effect on PHD2 activity (Recombinant PHD2; ambient air, comparable concentrations to ACF-2): failed to preserve or enhance PHD2 activity

c1ccc2c(c1)[I+]c1ccccc1-2 [DPI, diphenyleneiodonium chloride, reference compound]
TGF-β1–induced HIF-1α–EGFP GFP fluorescence intensity (HIF-1α–EGFP in A549): substantial drop in GFP intensity | HIF-1α and COL4A6 levels (Western blot) (A549 [1]): markedly reduced HIF-1α and COL4A6 levels

Cc1nc(C(=O)NCC(=O)O)c(O)c2ccc(Oc3ccccc3)cc12 [FG-4592]
fibrosis-associated proteins (fibronectin, α-SMA, COL3A1, COL4A6) (A549 [1]; A549, ambient air, CoCl2 200 μM, FG-4592 50 μM): increased expression of fibrosis-associated proteins | cell migration (wound healing) (A549 [2]): significant increase in cell migration

OO [H2O2]
effect on PHD2 activity (H2O2 added to the reaction) (Recombinant PHD2; H2O2 introduced to promote Fe2+ oxidation): inhibited PHD2 activity in a dose-dependent manner

COC(=O)c1ccc2c(c1)NC(=O)/C2=C(\Nc1ccc(N(C)C(=O)CN2CCN(C)CC2)cc1)c1ccccc1 [NIDB, nintedanib, reference compound]
Average Ashcroft score [3]: 3.8 | composite histological score of colon (inflammation + erosion) (colon): significantly increased the composite histological score | TGF-β1 (Tgfb1) expression in lung (RT-qPCR) [4]: markedly reduced

CN(C)c1cccc(-c2c3c(=O)n(-c4ccccc4Cl)[nH]c3cc(=O)n2C)c1 [Setanaxib]
HIF-1α and COL4A6 levels (Western blot) (A549 [1]): markedly reduced HIF-1α and COL4A6 levels

COc1cc(C(C)=O)ccc1O [apocynin]
HIF-1α and COL4A6 levels (Western blot) (A549 [1]): markedly reduced HIF-1α and COL4A6 levels
